# Earlier results in patent US10781456B2, “Carbon-neutral and carbon-positive photorespiration bypass routes supporting higher photosynthetic rate and yield” (Max-Planck-Gesellschaft zur Förderung der Wissenschaften …, priority 2015, dated 2020).
# Biological target: T1, 3-phosphoglycerate kinase (Sus scrofa, UniProt Q7SIB7)
# T1 sequence (Q7SIB7 1-417): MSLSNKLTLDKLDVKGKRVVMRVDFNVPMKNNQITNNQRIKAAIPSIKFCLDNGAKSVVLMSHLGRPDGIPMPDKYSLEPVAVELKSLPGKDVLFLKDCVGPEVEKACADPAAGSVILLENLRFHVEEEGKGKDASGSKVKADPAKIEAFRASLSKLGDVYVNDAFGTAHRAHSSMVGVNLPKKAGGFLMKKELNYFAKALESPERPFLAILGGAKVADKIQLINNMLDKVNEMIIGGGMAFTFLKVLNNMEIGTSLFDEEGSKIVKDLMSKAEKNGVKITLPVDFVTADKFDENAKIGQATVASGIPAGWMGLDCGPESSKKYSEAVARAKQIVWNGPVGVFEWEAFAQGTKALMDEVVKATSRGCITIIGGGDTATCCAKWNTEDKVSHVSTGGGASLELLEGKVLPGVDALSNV
# Conditions: Tompa 1986; Vas 1990; Szilagyi 1998; cited from earlier work
compound,measurement,value
"O=C(O)COP(=O)(O)O [2-PG, 2-phosphoglycolate]",type of inhibition of 3-phosphoglycerate kinase,competitive inhibitor
